Consider 21 molecules from US10995101B2, “2-oxo-thiazole derivatives as A2A inhibitors and compounds for use in the treatment of cancers” (iTeos Therapeutics SA, priority 2017, dated 2021).

One series has as its target A2A receptor (Homo sapiens, UniProt P29274). Nature of the series: Inhibition of cAMP production in HEK cells. Type of series: cell-based. The following applies: HEK-293 cells with A2A receptor. The method, then:
When the A2A receptor is activated, is induces the production of cAMP.
HEK-293 cells with a stable transfection of A2A receptor were bought from PerkinElmer® (# ES-011-C). […] Fresh media without the selection marker was added on the day immediately before the experiment to stop selection pressure.
Stimulation buffer b) mimics the human situation by increasing the amount of albumin present in the assay.
Compounds of the present invention were diluted 100× in either of the buffers depending on the assay performed. […] The total volume of the reaction was 20 μl (10 μl of cells, 5 μl of antagonist and 5 μl of agonist). The reaction was finalized by adding 10 μl of 4× EU-cAMP tracer working solution and 10 μl of 4× ULight-anti-cAMP working solution. The TR-FRET signal was measured after 1 hour using a Spectramax Paradigm (Molecular Devices).
A general note: Changes in cAMP serve as a functional read-out for many G protein-coupled receptors.

A further series can be described thus: in vitro. To be noted: human, Caco-2, pH 7.4.
[1] abbreviates: IC50 (nM) (3 nM NECA as agonist, 0.1% BSA), 3 nM NECA as agonist, 0.1% BSA.
Setting [2] is: IC50 (nM) (5 nM NECA as agonist, 2% HSA), 5 nM NECA as agonist, 2% HSA.
Setting [3] is: IC50 (nM) (5 μM Adenosine as agonist, 2.0% HSA), 5 μM Adenosine as agonist, 2.0% HSA.

A2A receptor, sequence (P29274 whole entry): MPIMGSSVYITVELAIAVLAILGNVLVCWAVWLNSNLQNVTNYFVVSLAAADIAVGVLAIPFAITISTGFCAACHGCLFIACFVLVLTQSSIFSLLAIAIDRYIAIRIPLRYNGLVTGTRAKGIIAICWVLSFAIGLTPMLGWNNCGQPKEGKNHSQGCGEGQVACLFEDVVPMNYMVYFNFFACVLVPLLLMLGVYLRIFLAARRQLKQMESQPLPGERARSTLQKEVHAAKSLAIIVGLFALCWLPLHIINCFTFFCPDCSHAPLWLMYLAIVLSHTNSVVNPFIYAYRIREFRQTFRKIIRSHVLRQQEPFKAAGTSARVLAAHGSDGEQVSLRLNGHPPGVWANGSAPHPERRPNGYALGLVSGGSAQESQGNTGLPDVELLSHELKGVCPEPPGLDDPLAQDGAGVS

The IC50 is the concentration at which inhibition is half-maximal. What is called efflux ratio is a quotient of directional permeabilities that is used to spot active efflux. Take `C[S@+]([O-])CCOc1ccc(N2CCN(CCn3c(=O)sc4c3nc(N)n3nc(-c5ccco5)nc43)CC2)c(F)c1` (single isomer, unassigned) [Compound 5]: the half-inhibitory concentration (IC50) is 0.4 nM at A2A receptor (setting [1]), 8 nM on A2A receptor (setting [2]) and 241 nM on A2A receptor (setting [3]). The efflux ratio at 120 min, 2 μM in “in vitro” is 67.

`C[S@@+]([O-])CCOc1ccc(N2CCN(CCn3c(=O)sc4c3nc(N)n3nc(-c5ccco5)nc43)CC2)c(F)c1` (single isomer, unassigned) [Compound 6]: the 50% inhibitory concentration (IC50) is 0.5 nM at A2A receptor (setting [1]), 8 nM on A2A receptor (setting [2]) and 179 nM on A2A receptor (setting [3]). In addition, the efflux ratio at 120 min, 2 μM in the series “in vitro” was found to be 59.

For `Nc1nc2c(sc(=O)n2CCN2CCN(c3ccncc3F)CC2)c2nc(-c3ccco3)nn12` [Compound 3, 5-amino-3-(2-(4-(3-fluoropyridin-4-yl)piperazin-1-yl)ethyl)-8-(furan-2-yl)thiazolo[5,4-e][1,2,4]triazolo[1,5-c]pyrimidin-2(3H)-one], the efflux ratio at 120 min, 2 μM in the series “in vitro” came to 4.

On to `Nc1nc2c(sc(=O)n2CCN2CCN(c3c(F)cc(OCC(=O)O)cc3F)CC2)c2nc(-c3ccco3)nn12` [Compound 36, 2-(4-(4-(2-(5-amino-8-(furan-2-yl)-2-oxothiazolo[5,4-e][1,2,4]triazolo[1,5-c]pyrimidin-3(2H)-yl)ethyl)piperazin-1-yl)-3,5-difluorophenoxy)acetic acid], for which the 50% inhibitory concentration (IC50) on A2A receptor (setting [1]) amounted to 0.7 nM; on A2A receptor (setting [2]) it was 8 nM; on A2A receptor (setting [3]), 260 nM.

As for `CC(Oc1ccc(N2CCN(CCn3c(=O)sc4c3nc(N)n3nc(-c5ccco5)nc43)CC2)c(F)c1)C(=O)O` (centres unmarked) [Compound 37, 2-(4-(4-(2-(5-amino-8-(furan-2-yl)-2-oxothiazolo[5,4-e][1,2,4]triazolo[1,5-c]pyrimidin-3(2H)-yl)ethyl)piperazin-1-yl)-3-fluorophenoxy)propanoic acid], the IC50 came out at 0.8 nM on A2A receptor (setting [1]), 9 nM at A2A receptor (setting [2]) and 398 nM on A2A receptor (setting [3]).

Regarding `Nc1nc2c(sc(=O)n2CCN2CCN(c3ccc(OCCCC(=O)O)cc3F)CC2)c2nc(-c3ccco3)nn12` [Compound 41, 4-(4-(4-(2-(5-amino-8-(furan-2-yl)-2-oxothiazolo[5,4-e][1,2,4]triazolo[1,5-c]pyrimidin-3(2H)-yl)ethyl)piperazin-1-yl)-3-fluorophenoxy)butanoic acid], the results for the concentration for half-maximal inhibition (IC50) on A2A receptor (setting [1]), on A2A receptor (setting [2]) and on A2A receptor (setting [3]) were 0.8 nM, 14 nM and 423 nM, respectively.

Turning to `Nc1nc2c(sc(=O)n2CCN2CCN(c3ccc(F)c(OCC(=O)O)c3F)CC2)c2nc(-c3ccco3)nn12` [Compound 42, 2-(3-(4-(2-(5-amino-8-(furan-2-yl)-2-oxothiazolo[5,4-e][1,2,4]triazolo[1,5-c]pyrimidin-3(2H)-yl)ethyl)piperazin-1-yl)-2,6-difluorophenoxy)acetic acid], the IC50 amounted to 0.4 nM at A2A receptor (setting [1]), 19 nM at A2A receptor (setting [2]) and 332 nM on A2A receptor (setting [3]).

As to `CN(CCOc1ccc(N2CCN(CCn3c(=O)sc4c3nc(N)n3nc(-c5ccco5)nc43)CC2)c(F)c1)CC(N)=O` [Compound 46, 2-((2-(4-(4-(2-(5-amino-8-(furan-2-yl)-2-oxothiazolo[5,4-e][1,2,4]triazolo[1,5-c]pyrimidin-3(2H)-yl)ethyl)piperazin-1-yl)-3-fluorophenoxy)ethyl)(methyl)amino)acetamide], the efflux ratio at 120 min, 2 μM in the series “in vitro” stood at 30.

Take `CNCCN(C)C(=O)COc1ccc(N2CCN(CCn3c(=O)sc4c3nc(N)n3nc(-c5ccco5)nc43)CC2)c(F)c1` [Compound 58, 2-(4-(4-(2-(5-amino-8-(furan-2-yl)-2-oxothiazolo[5,4-e][1,2,4]triazolo[1,5-c]pyrimidin-3(2H)-yl)ethyl)piperazin-1-yl)-3-fluorophenoxy)-N-methyl-N-(2-(methylamino)ethyl)acetamide]: the half-maximal inhibitory concentration (IC50) at A2A receptor (setting [1]) was determined as 0.3 nM; at A2A receptor (setting [2]) it was 1 nM; at A2A receptor (setting [3]) it was 41 nM.

Regarding `CC(C)(Oc1cc(N2CCN(CCn3c(=O)sc4c3nc(N)n3nc(-c5ccco5)nc43)CC2)c(F)cc1F)C(=O)O` [Compound 59, 2-(5-(4-(2-(5-amino-8-(furan-2-yl)-2-oxothiazolo[5,4-e][1,2,4]triazolo[1,5-c]pyrimidin-3(2H)-yl)ethyl)piperazin-1-yl)-2,4-difluorophenoxy)-2-methylpropanoic acid], the half-inhibitory concentration (IC50) worked out at 0.9 nM on A2A receptor (setting [1]), 21 nM at A2A receptor (setting [2]) and 1070 nM on A2A receptor (setting [3]).

On to `Nc1nc2c(sc(=O)n2CCN2CCN(c3cc(OCCCC(=O)O)c(F)cc3F)CC2)c2nc(-c3ccco3)nn12` [Compound 65, 4-(5-(4-(2-(5-amino-8-(furan-2-yl)-2-oxothiazolo[5,4-e][1,2,4]triazolo[1,5-c]pyrimidin-3(2H)-yl)ethyl)piperazin-1-yl)-2,4-difluorophenoxy)butanoic acid], for which the 50% inhibitory concentration (IC50) on A2A receptor (setting [1]) was 0.6 nM; on A2A receptor (setting [2]), 27 nM; at A2A receptor (setting [3]) it was 494 nM.

For the molecule `CCOC(=O)COc1cc(N2CCN(CCn3c(=O)sc4c3nc(N)n3nc(-c5ccco5)nc43)CC2)c(F)cc1F` [Compound 73, ethyl 2-(5-(4-(2-(5-amino-8-(furan-2-yl)-2-oxothiazolo[5,4-e][1,2,4]triazolo[1,5-c]pyrimidin-3(2H)-yl)ethyl)piperazin-1-yl)-2,4-difluorophenoxy)acetate], the half-maximal inhibitory concentration (IC50) at A2A receptor (setting [1]) was determined as 3.4 nM; at A2A receptor (setting [2]), 8 nM; on A2A receptor (setting [3]), 304 nM.

As to `Nc1nc2c(sc(=O)n2CCN2CCN(c3ccncc3)CC2)c2nc(-c3ccco3)nn12` [Compound 75, 5-amino-8-(furan-2-yl)-3-(2-(4-(pyridin-4-yl)piperazin-1-yl)ethyl)thiazolo[5,4-e][1,2,4]triazolo[1,5-c]pyrimidin-2(3H)-one], the values for the half-maximal inhibitory concentration (IC50) on A2A receptor (setting [1]) and at A2A receptor (setting [2]) were 24 nM and 100 nM, respectively.

Turning to `Nc1nc2c(sc(=O)n2CCN2CCN(c3ccncn3)CC2)c2nc(-c3ccco3)nn12` [Compound 76, 5-amino-8-(furan-2-yl)-3-(2-(4-(pyrimidin-4-yl)piperazin-1-yl)ethyl)thiazolo[5,4-e][1,2,4]triazolo[1,5-c]pyrimidin-2(3H)-one], the concentration for half-maximal inhibition (IC50) was determined as 5 nM at A2A receptor (setting [1]) and 151 nM on A2A receptor (setting [2]).

On A2A receptor (setting [1]), `CN(C)CCNC(=O)c1cc(N2CCN(CCn3c(=O)sc4c3nc(N)n3nc(-c5ccco5)nc43)CC2)c(F)cc1F` [Compound 81, 5-(4-(2-(5-amino-8-(furan-2-yl)-2-oxothiazolo[5,4-e][1,2,4]triazolo[1,5-c]pyrimidin-3(2H)-yl)ethyl)piperazin-1-yl)-N-(2-(dimethylamino)ethyl)-2,4-difluorobenzamide] gave a concentration for half-maximal inhibition (IC50) of 117 nM.

As for `Nc1nc2c(sc(=O)n2CCN2CCN(c3cc(O[C@@H]4CNC[C@@H]4F)c(F)cc3F)CC2)c2nc(-c3ccco3)nn12` [Compound 93, 5-amino-3-(2-(4-(2,4-difluoro-5-(((3R,4S)-4-fluoropyrrolidin-3-yl)oxy)phenyl)piperazin-1-yl)ethyl)-8-(furan-2-yl)thiazolo[5,4-e][1,2,4]triazolo[1,5-c]pyrimidin-2(3H)-one], the values for the IC50 at A2A receptor (setting [1]) and at A2A receptor (setting [3]) were 0.4 nM and 33 nM, respectively.

For `Nc1nc2c(sc(=O)n2CCN2CCN(c3cc(O[C@H]4CNC[C@H]4F)c(F)cc3F)CC2)c2nc(-c3ccco3)nn12` [Compound 94, 5-amino-3-(2-(4-(2,4-difluoro-5-(((3S,4R)-4-fluoropyrrolidin-3-yl)oxy)phenyl)piperazin-1-yl)ethyl)-8-(furan-2-yl)thiazolo[5,4-e][1,2,4]triazolo[1,5-c]pyrimidin-2(3H)-one], the efflux ratio at 120 min, 2 μM in the series “in vitro” was found to be 173.

Consider `Nc1nc2c(sc(=O)n2CCN2CCN(c3cc(OCC(=O)NCCN4CCOCC4)c(F)cc3F)CC2)c2nc(-c3ccco3)nn12` [Compound 97, 2-(5-(4-(2-(5-amino-8-(furan-2-yl)-2-oxothiazolo[5,4-e][1,2,4]triazolo[1,5-c]pyrimidin-3(2H)-yl)ethyl)piperazin-1-yl)-2,4-difluorophenoxy)-N-(2-morpholinoethyl)acetamide], for which the IC50 at A2A receptor (setting [1]) came to 1.1 nM; at A2A receptor (setting [3]), 30 nM.

Turning to `Nc1nc2c(sc(=O)n2CCN2CCN(c3ccc(OCC(=O)NCCN4CCOCC4)cc3F)CC2)c2nc(-c3ccco3)nn12` [Compound 105, 2-(4-(4-(2-(5-amino-8-(furan-2-yl)-2-oxothiazolo[5,4-e][1,2,4]triazolo[1,5-c]pyrimidin-3(2H)-yl)ethyl)piperazin-1-yl)-3-fluorophenoxy)-N-(2-morpholinoethyl)acetamide], the half-maximal inhibitory concentration (IC50) on A2A receptor (setting [1]) turned out to be 0.7 nM; on A2A receptor (setting [3]), 95 nM.

Consider `Nc1nc2c(sc(=O)n2CCN2CCN(c3ccc(C(=O)NCCN4CCOCC4)cc3F)CC2)c2nc(-c3ccco3)nn12` [Compound 106, 4-(4-(2-(5-amino-8-(furan-2-yl)-2-oxothiazolo[5,4-e][1,2,4]triazolo[1,5-c]pyrimidin-3(2H)-yl)ethyl)piperazin-1-yl)-3-fluoro-N-(2-morpholinoethyl)benzamide], for which the results for the IC50 at A2A receptor (setting [1]) and at A2A receptor (setting [3]) were 0.3 nM and 205 nM, respectively.

With `Nc1nc2c(sc(=O)n2CCN2CCN(c3cc(OC[C@@H](O)CO)c(F)cc3F)CC2)c2nc(-c3ccco3)nn12` [Compound 127, (S)-5-amino-3-(2-(4-(5-(2,3-dihydroxypropoxy)-2,4-difluorophenyl)piperazin-1-yl)ethyl)-8-(furan-2-yl)thiazolo[5,4-e][1,2,4]triazolo[1,5-c]pyrimidin-2(3H)-one], the IC50 at A2A receptor (setting [1]) came to 0.5 nM; at A2A receptor (setting [3]), 35 nM.
